# According to US9458212B2, “Nanoparticles containing a peptide, vectors containing said nanoparticles, and pharmaceutical uses of said nanoparticles and vectors” (CENTRE NATIONAL DE LA RECHERCHE SCIENTIFIQUE (C.N.R.S.), priority 2008, dated 2016):
# Non-standard residues stand in square brackets, D forms with d. No end group written: not given here. pS = N[C@@H](COP(=O)(O)O)C(=O)O
# Legend:
# [1] = tested on: mice; assay: Intranasal administration of peptide P140 in mice; format: in vivo
# Method: At present, the peptide P140 is administered by subcutaneous injection, which is not a comfortable mode of administration for the patient. Several other modes of administration have thus been tested. For instance, intranasal administration has been tested in mice but is not effective.
# [2] = tested on: T cells present in the lymph nodes draining the site of administration; assay: Subcutaneous immunization of BALB/c mice; ex vivo proliferation and cytokine secretion of lymph node cells stimulated with peptide P140; settings: s.c., in the presence of CFA
# Method: Eur. J. Immunol. 33, 287-296].
# Female BALB/c mice aged 7 weeks old (4 groups of two mice) are immunized subcutaneously in the flanks with different formulations. […] The mice having received peptide in its free form or in the form of nanoparticles all received the same quantity of peptide, namely 100 μg per mouse.
# One week after the immunization, the mice are sacrificed and samples are taken from the lymph nodes of the flank and of the foreleg. The cells issuing from these lymph nodes are cultured ex vivo in a proportion of 5.10^5 cells per well in the presence of different peptide concentrations (0, 6, 20 and 60 μM) so as to study their proliferation and also the secretion of cytokines.
# The Th cells are classified into sub-populations, Th1 or Th2, depending on the cytokines that they produce and the function that they perform. Cells of type Th-1 produce in particular interleukin-2 (IL-2) and interferon-γ (IFN-γ), whereas cells of type Th-2 secrete essentially IL-4, IL-5, IL-6, IL-10 and IL-13. The immunization conditions used here, that is to say the use of CFA, encourage the development of a response of type Th1. Therefore, only the secretion of IL-2 and IFN-γ was studied.
# [3] = tested on: T cells present in the lymph nodes draining the site of administration; settings: with adjuvant, BALB/c mice, Monneaux et al. 2003; cited from earlier work
substance,measurement,setting,value
"peptide P140: 21 amino acid peptide RIHMVYSKRSGKPRGYAFIEY, serine in position 10 phosphorylated (SEQ ID NO: 1) (RIHMVYSKR[pS]GKPRGYAFIEY; listed as Homo sapiens)",efficacy of intranasal administration,[1],not effective
same,stimulation indices (proliferation),"[2]; 100 μg peptide per mouse, cells cultured with 0, 6, 20, 60 μM peptide",positive and dose-dependent
same,"cytokine secretion (IL-2, IFN-γ)",[2],dose-dependent responses
same,T cell response after s.c. administration in the presence of adjuvant,[3],activation of the auxiliary T cells Th
